Assays:
[1] = tested on: K-562; test: SRB colorimetric cell growth inhibition assay, K-562; type: cell-based; conditions: Homo sapiens, K562, K-562
In short: (§1)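 Tested samples remained on human cancer cell cultures throughout the incubation; viable biomass was then stained with SRB and read colorimetrically.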

[2] = tested on: A-549; test: SRB colorimetric cell growth inhibition assay, A-549; type: cell-based; conditions: Homo sapiens, A549, A-549
In short: as §1

[3] = tested on: SK-MEL-28; test: SRB colorimetric cell growth inhibition assay, SK-MEL-28; type: cell-based; conditions: Homo sapiens, SK-MEL-28, MEL-28
In short: as §1

[4] = tested on: HT-29; test: SRB colorimetric cell growth inhibition assay, HT-29; type: cell-based; conditions: Homo sapiens
In short: as §1

[5] = tested on: LoVo; test: SRB colorimetric cell growth inhibition assay, LoVo; type: cell-based; conditions: Homo sapiens
In short: as §1

[6] = tested on: LoVo-Dox; test: SRB colorimetric cell growth inhibition assay, LoVo-Dox (MDR); type: cell-based; conditions: Homo sapiens, LOVO-DOX
In short: as §1

[7] = tested on: DU-145; test: SRB colorimetric cell growth inhibition assay, DU-145; type: cell-based; conditions: Homo sapiens
In short: as §1

[8] = tested on: LNCaP; test: SRB colorimetric cell growth inhibition assay, LNCaP; type: cell-based; conditions: Homo sapiens, LNCaP, LN-caP
In short: as §1

[9] = tested on: SK-BR-3; test: SRB colorimetric cell growth inhibition assay, SK-BR-3; type: cell-based; conditions: Homo sapiens
In short: as §1

[10] = tested on: IGROV; test: SRB colorimetric cell growth inhibition assay, IGROV; type: cell-based; conditions: Homo sapiens, IGROV
In short: as §1

[11] = tested on: IGROV-ET; test: SRB colorimetric cell growth inhibition assay, IGROV-ET (ET-743 resistant); type: cell-based; conditions: Homo sapiens, IGROV-ET
In short: as §1

[12] = tested on: PANC-1; test: SRB colorimetric cell growth inhibition assay, PANC-1; type: cell-based; conditions: Homo sapiens
In short: as §1

[13] = target: T1, human topoisomerase I (Homo sapiens, UniProt P11387); test: Topoisomerase I DNA relaxation assay (supercoiled plasmid DNA); type: biochemical; conditions: supercoiled plasmid DNA, each compound tested at 1 μM, agarose gel with ethidium bromide
T1 sequence (P11387 1-765): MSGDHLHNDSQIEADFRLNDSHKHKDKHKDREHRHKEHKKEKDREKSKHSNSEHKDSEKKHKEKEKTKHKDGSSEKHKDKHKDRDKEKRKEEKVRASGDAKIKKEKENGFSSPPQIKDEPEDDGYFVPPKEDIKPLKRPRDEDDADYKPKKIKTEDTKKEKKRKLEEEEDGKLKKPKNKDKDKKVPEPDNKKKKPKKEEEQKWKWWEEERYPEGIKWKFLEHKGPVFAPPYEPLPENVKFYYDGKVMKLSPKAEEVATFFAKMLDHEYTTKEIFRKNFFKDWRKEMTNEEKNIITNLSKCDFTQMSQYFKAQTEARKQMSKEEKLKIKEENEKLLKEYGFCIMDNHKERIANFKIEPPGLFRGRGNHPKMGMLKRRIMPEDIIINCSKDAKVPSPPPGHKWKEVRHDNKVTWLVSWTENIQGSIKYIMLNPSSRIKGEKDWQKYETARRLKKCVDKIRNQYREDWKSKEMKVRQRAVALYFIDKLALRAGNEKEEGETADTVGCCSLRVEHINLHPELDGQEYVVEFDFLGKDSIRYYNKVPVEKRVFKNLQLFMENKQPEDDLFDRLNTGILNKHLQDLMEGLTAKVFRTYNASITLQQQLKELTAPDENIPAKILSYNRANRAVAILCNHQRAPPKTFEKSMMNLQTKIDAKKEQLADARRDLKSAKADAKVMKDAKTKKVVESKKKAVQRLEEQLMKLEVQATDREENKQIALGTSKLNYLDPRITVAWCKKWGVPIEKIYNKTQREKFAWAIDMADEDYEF
In short: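 Test compounds (1 μM each) were present during topoisomerase I relaxation of supercoiled plasmid DNA. Relaxation was assessed on ethidium bromide-stained agarose gels.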

[14] = tested on: SKOV-3; test: SRB colorimetric cell growth inhibition assay, SKOV-3; type: cell-based; conditions: Homo sapiens
In short: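 Growth inhibition (GI), total growth inhibition (TGI, cytostatic) and lethal concentration (LC, cytotoxic) come from an SRB-based colorimetric measure of growth and viability. Data are triplicate-well means ± SD.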

## COc1cc(-c2c3c4cc(OC)c(OC(=O)[C@@H](NC(=O)OC(C)(C)C)C(C)C)cc4oc(=O)c3n3ccc4cc(OC(=O)[C@@H](NC(=O)OC(C)(C)C)C(C)C)c(OC)cc4c23)ccc1OC(=O)[C@@H](NC(=O)OC(C)(C)C)C(C)C [Compound 38]
[1]; GI=growth inhibition, read-out: GI50 K-562
  GI50: 0.0413 µM
[1]; LC=cell killing (cytotoxic effect), read-out: LC50 K-562
  CC50: 9.11 µM
[1]; TGI=total growth inhibition (cytostatic effect), read-out: TGI K-562
  IC (TGI): 1.15 µM
[2]; GI=growth inhibition, read-out: GI50 A-549
  GI50: 1.34 µM
[2]; LC=cell killing (cytotoxic effect), read-out: LC50 A-549
  CC50: 9.11 µM
[2]; TGI=total growth inhibition (cytostatic effect), read-out: TGI A-549
  IC (TGI): 4.78 µM
[3]; GI=growth inhibition, read-out: GI50 MEL-28
  GI50: 0.165 µM
[3]; LC=cell killing (cytotoxic effect), read-out: LC50 MEL-28
  CC50: 9.11 µM
[3]; total growth inhibition (cytostatic effect), read-out: TGI MEL-28
  IC (TGI): 0.52 µM
[4]; HT-29, HT-29, LC=cell killing (cytotoxic effect), read-out: LC50 HT-29
  CC50: 9.11 µM
[4]; HT-29, GI=growth inhibition, read-out: GI50 HT-29
  GI50: 0.0324 µM
[4]; HT-29, TGI=total growth inhibition (cytostatic effect), read-out: TGI HT-29
  IC (TGI): 0.0911 µM
[5]; LoVo, LC=cell killing (cytotoxic effect), read-out: LC50 LOVO
  CC50: 9.11 µM
[5]; LOVO, GI=growth inhibition, read-out: GI50 LOVO
  GI50: 9.11 µM
[5]; LOVO, TGI=total growth inhibition (cytostatic effect), read-out: TGI LOVO
  IC (TGI): 9.11 µM
[6]; GI=growth inhibition, read-out: GI50 LOVO-DOX
  GI50: 9.11 µM
[6]; LC=cell killing (cytotoxic effect), read-out: LC50 LOVO-DOX
  CC50: 9.11 µM
[6]; TGI=total growth inhibition (cytostatic effect), read-out: TGI LOVO-DOX
  IC (TGI): 9.11 µM
[7]; DU-145, DU-145, LC=cell killing (cytotoxic effect), read-out: LC50 DU-145
  CC50: 9.11 µM
[7]; DU-145, GI=growth inhibition, read-out: GI50 DU-145
  GI50: 0.0512 µM
[7]; DU-145, total growth inhibition (cytostatic effect), read-out: TGI DU-145
  IC (TGI): 9.11 µM
[8]; GI=growth inhibition, read-out: GI50 LN-caP
  GI50: 0.152 µM
[8]; LC=cell killing (cytotoxic effect), read-out: LC50 LN-caP
  CC50: 3.9 µM
[8]; total growth inhibition (cytostatic effect), read-out: TGI LN-caP
  IC (TGI): 0.509 µM
[9]; SK-BR-3, SK-BR-3, LC=cell killing (cytotoxic effect), read-out: LC50 SK-BR-3
  CC50: 9.11 µM
[9]; SK-BR-3, GI=growth inhibition, read-out: GI50 SK-BR-3
  GI50: 0.448 µM
[9]; SK-BR-3, total growth inhibition (cytostatic effect), read-out: TGI SK-BR-3
  IC (TGI): 4.08 µM
[10]; LC=cell killing (cytotoxic effect), read-out: LC50 IGROV
  CC50: 9.11 µM
[10]; GI=growth inhibition, read-out: GI50 IGROV
  GI50: 0.244 µM
[10]; total growth inhibition (cytostatic effect), read-out: TGI IGROV
  IC (TGI): 1.07 µM
[11]; GI=growth inhibition, read-out: GI50 IGROV-ET
  GI50: 1.29 µM
[11]; LC=cell killing (cytotoxic effect), read-out: LC50 IGROV-ET
  CC50: 9.11 µM
[11]; total growth inhibition (cytostatic effect), read-out: TGI IGROV-ET
  IC (TGI): 4.51 µM
[12]; PANC-1, PANC-1, LC=cell killing (cytotoxic effect), read-out: LC50 PANC-1
  CC50: 9.11 µM
[12]; PANC-1, PANC-1, TGI=total growth inhibition (cytostatic effect), read-out: TGI PANC-1
  IC (TGI): 9.11 µM
[12]; PANC-1, GI=growth inhibition, read-out: GI50 PANC-1
  GI50: 0.499 µM
[13]
  stimulation of DNA cleavage by topoisomerase I / inhibition of topoisomerase I (nicked DNA band) in DNA relaxation assay: No effect
[14]; SK-OV-3, SKOV-3, GI=growth inhibition, read-out: GI50 SKOV-3
  GI50: 0.684 µM
[14]; SK-OV-3, SKOV-3, total growth inhibition (cytostatic effect), read-out: TGI SKOV-3
  IC (TGI): 7.42 µM

From patent US7396837B2, “Antitumoral analogs of lamellarins” (Pharma Mar, S.A.U., priority 2002, dated 2008)
